Measured values reported in the supplement of paper PMC11061612.

Assays:
Assay in all cases: combination Emax (second highest fraction inhibited in the dose matrix, 72 h); higher = more inhibition; extreme values may be limits of the assay
[1] = system: A375 (Melanoma)
How it was run: (§1)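 Bliss excess equals the observed combination effect minus the expected value EA + EB − EA·EB, where EA and EB are the effects of each agent alone. Combination Emax is the second-highest inhibition within the matrix. Inhibition was scaled from CellTiter-Glo 2.0 luminescence, with 0 set by vehicle wells and 1 by blank wells, after 72 hours of two-drug dosing of cells plated in 1536-well plates.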

[2] = system: NCI-H2009 (Lung Adenocarcinoma)
How it was run: as §1

[3] = system: SBC-5 (Small Cell Lung Carcinoma)
How it was run: as §1

[4] = system: OCI-M1 (Acute Myeloid Leukemia)
How it was run: as §1

[5] = system: Daudi (Burkitt's Lymphoma)
How it was run: as §1

[6] = system: NCI-H1048 (Small Cell Lung Carcinoma)
How it was run: as §1

[7] = system: C32 (Melanoma)
How it was run: as §1

[8] = system: NCI-H1435 (Non-Small Cell Lung Carcinoma)
How it was run: as §1

[9] = system: GRANTA-519 (B-Cell Non-Hodgkin's Lymphoma)
How it was run: as §1

[10] = system: TOV-21G (Ovarian Carcinoma)
How it was run: as §1

[11] = system: IGROV-1 (Ovarian Carcinoma)
How it was run: as §1

[12] = system: DK-MG (Glioblastoma)
How it was run: as §1

[13] = system: GCIY (Gastric Carcinoma)
How it was run: as §1

[14] = system: NCI-H1648 (Lung Adenocarcinoma)
How it was run: as §1

[15] = system: NCI-H2023 (Non-Small Cell Lung Carcinoma)
How it was run: as §1

[16] = system: KNS-62 (Squamous Cell Lung Carcinoma)
How it was run: as §1

[17] = system: MRK-nu-1 (Breast Carcinoma)
How it was run: as §1

[18] = system: BC-1 (B-Cell Non-Hodgkin's Lymphoma)
How it was run: as §1

[19] = system: NCI-H2452 (Mesothelioma)
How it was run: as §1

[20] = system: L-363 (Plasma Cell Myeloma)
How it was run: as §1

Row | Structure (SMILES) | combination Emax [1] | combination Emax [2] | combination Emax [3] | combination Emax [4] | combination Emax [5] | combination Emax [6] | combination Emax [7] | combination Emax [8] | combination Emax [9] | combination Emax [10] | combination Emax [11] | combination Emax [12] | combination Emax [13] | combination Emax [14] | combination Emax [15] | combination Emax [16] | combination Emax [17] | combination Emax [18] | combination Emax [19] | combination Emax [20]
1 | Cn1cnc2c(F)c(Nc3ccc(Br)cc3Cl)c(C(=O)NOCCO)cc21 [Selumetinib] + CC(C)n1c(=O)n(C)c2cnc3cc(F)c(-c4ccc(OCCCN5CCCCC5)nc4)cc3c21 [AZD1390] (first compound max 10 µM, 7x7, partner max 0.3 µM) | 0.684 | 0.405 | 0.0866 | 0.749 | 0.211 | 0.101 | 0.948 | 0.13 | 0.095 | 0.259 | 0.618 | 0.323 | 0.396 | 0.512 | 0.161 | 0.439 | 0.35 | 0.328 | 0.262 | 0.017
2 | Cn1cnc2c(F)c(Nc3ccc(Br)cc3Cl)c(C(=O)NOCCO)cc21 [Selumetinib] + CCN(CCO)CCCOc1ccc2c(Nc3cc(CC(=O)Nc4cccc(F)c4)[nH]n3)ncnc2c1 [AZD2811] (first compound max 10 µM, 7x7, partner max 1 µM) | 0.718 | 0.676 | 0.366 | 0.841 | 0.387 | 0.611 | 0.999 | 0.106 | 0.439 | 0.48 | 0.665 | 0.38 | 0.371 | 0.593 | 0.275 | 0.495 | 0.548 | 0.655 | 0.249 | 0.116
3 | Cn1cnc2c(F)c(Nc3ccc(Br)cc3Cl)c(C(=O)NOCCO)cc21 [Selumetinib] + C[C@@H]1COCCN1C2=NC(=NC(=C2)C3(CC3)[S@](=N)(=O)C)C4=C5C=CNC5=NC=C4 [AZD6738] (first compound max 10 µM, 7x7, partner max 10 µM) | 0.772 | 0.627 | 0.814 | 0.984 | 0.672 | 0.67 | 1 | 0.114 | 0.909 | 0.809 | 0.818 | 0.417 | 0.704 | 0.752 | 0.477 | 0.524 | 0.413 | 0.923 | 0.363 | 0.801
4 | CC(=O)Nc1cccc(-n2c(=O)n(C3CC3)c(=O)c3c(Nc4ccc(I)cc4F)n(C)c(=O)c(C)c32)c1 [Trametinib] + Cc1nc(-c2cn3c(n2)-c2ccc(-c4cnn(C(C)(C)C(N)=O)c4)cc2OCC3)n(C(C)C)n1 [Taselisib] (first compound max 1 µM, 7x7, partner max 10 µM) | 0.935 | 0.955 | 0.784 | 1 | 0.523 | 1 | 1 | 0.896 | 0.189 | 0.817 | 0.966 | 0.969 | 0.99 | 1 | 0.769 | 0.827 | 0.814 | 0.546 | 0.617 | 0.635
5 | CC1(C)CCC(CN2CCN(c3ccc(C(=O)NS(=O)(=O)c4ccc(NCC5CCOCC5)c([N+](=O)[O-])c4)c(Oc4cnc5[nH]ccc5c4)c3)CC2)=C(c2ccc(Cl)cc2)C1 [Venetoclax] + C1CN(CCC1(C(=O)N[C@@H](CCO)C2=CC=C(C=C2)Cl)N)C3=NC=NC4=C3C=CN4 [Capivasertib] (first compound max 1 µM, 7x7, partner max 3 µM) | 0.175 | 0.128 | 0.188 | 0.157 | 0.205 | 0.679 | 0.356 | 0.154 | 0.411 | 0.646 | 0.738 | 0.301 | 0.442 | 0.45 | 0.424 | 0.364 | 0.288 | 0.523 | 0.272 | 0.867
6 | CC1(C)CCC(CN2CCN(c3ccc(C(=O)NS(=O)(=O)c4ccc(NCC5CCOCC5)c([N+](=O)[O-])c4)c(Oc4cnc5[nH]ccc5c4)c3)CC2)=C(c2ccc(Cl)cc2)C1 [Venetoclax] + C=CCn1c(=O)c2cnc(Nc3ccc(N4CCN(C)CC4)cc3)nc2n1-c1cccc(C(C)(C)O)n1 [AZD1775] (first compound max 1 µM, partner max 1 µM) | 0.505 | 0.637 | 0.459 | 0.912 | 0.663 | 0.92 | 0.546 | 0.35 | 1 | 0.703 | 0.819 | 0.452 | 0.824 | 0.595 | 0.713 | 0.544 | 0.294 | 1 | 0.739 | 1
7 | CC1(C)CCC(CN2CCN(c3ccc(C(=O)NS(=O)(=O)c4ccc(NCC5CCOCC5)c([N+](=O)[O-])c4)c(Oc4cnc5[nH]ccc5c4)c3)CC2)=C(c2ccc(Cl)cc2)C1 [Venetoclax] + CCN(CCO)CCCOc1ccc2c(Nc3cc(CC(=O)Nc4cccc(F)c4)[nH]n3)ncnc2c1 [AZD2811] (first compound max 1 µM, 7x7, partner max 1 µM) | 0.371 | 0.236 | 0.266 | 0.276 | 0.366 | 0.73 | 0.385 | 0.161 | 0.925 | 0.354 | 0.255 | 0.283 | 0.386 | 0.201 | 0.378 | 0.275 | 0.612 | 0.674 | 0.259 | 0.865
8 | CC1(C)CCC(CN2CCN(c3ccc(C(=O)NS(=O)(=O)c4ccc(NCC5CCOCC5)c([N+](=O)[O-])c4)c(Oc4cnc5[nH]ccc5c4)c3)CC2)=C(c2ccc(Cl)cc2)C1 [Venetoclax] + CN(C)CCCOc1ccc(-c2ccc3ncc4c(c3c2)n(C2CCOCC2)c(=O)n4C)cn1 [AZD0156] (first compound max 1 µM, 7x7, partner max 1 µM) | 0.216 | 0.273 | 0.163 | 0.19 | 0.054 | 0.178 | 0.413 | 0.17 | 0.388 | 0.18 | 0.535 | 0.292 | 0.403 | 0.267 | 0.338 | 0.262 | 0.132 | 0.555 | 0.277 | 0.867
9 | CC1(C)CCC(CN2CCN(c3ccc(C(=O)NS(=O)(=O)c4ccc(NCC5CCOCC5)c([N+](=O)[O-])c4)c(Oc4cnc5[nH]ccc5c4)c3)CC2)=C(c2ccc(Cl)cc2)C1 [Venetoclax] + COc1cc(Nc2ncc3c(n2)-c2ccc(Cl)cc2C(c2c(F)cccc2OC)=NC3)ccc1C(=O)O [Alisertib] (first compound max 1 µM, 7x7, partner max 10 µM) | 0.466 | 0.5 | 0.615 | 0.815 | 0.787 | 0.948 | 0.487 | 0.287 | 0.969 | 0.682 | 0.789 | 0.443 | 0.94 | 0.58 | 0.477 | 0.283 | 0.628 | 0.943 | 0.573 | 0.772
10 | CC1(C)CCC(CN2CCN(c3ccc(C(=O)NS(=O)(=O)c4ccc(NCC5CCOCC5)c([N+](=O)[O-])c4)c(Oc4cnc5[nH]ccc5c4)c3)CC2)=C(c2ccc(Cl)cc2)C1 [Venetoclax] + C[C@@H]1COCCN1C2=NC(=NC(=C2)C3(CC3)[S@](=N)(=O)C)C4=C5C=CNC5=NC=C4 [AZD6738] (first compound max 1 µM, 7x7, partner max 10 µM) | 0.674 | 0.415 | 0.792 | 1 | 0.725 | 0.7 | 0.666 | 0.177 | 0.99 | 0.785 | 0.759 | 0.336 | 0.879 | 0.668 | 0.729 | 0.523 | 0.665 | 0.933 | 0.573 | 0.897
11 | CC1(C)CCC(CN2CCN(c3ccc(C(=O)NS(=O)(=O)c4ccc(NCC5CCOCC5)c([N+](=O)[O-])c4)c(Oc4cnc5[nH]ccc5c4)c3)CC2)=C(c2ccc(Cl)cc2)C1 [Venetoclax] + C[C@@H](Nc1cc(F)cc(F)c1)c1cc(C(=O)N(C)C)cc2c(=O)cc(N3CCOCC3)oc12 [AZD8186] (first compound max 1 µM, 7x7, partner max 3 µM) | 0.109 | 0.445 | 0.163 | 0.0849 | 0.271 | 0.504 | 0.26 | 0.203 | 0.437 | 0.149 | 0.668 | 0.372 | 0.641 | 0.454 | 0.416 | 0.133 | 0.175 | 0.264 | 0.268 | 0.805
12 | CC1(C)CCC(CN2CCN(c3ccc(C(=O)NS(=O)(=O)c4ccc(NCC5CCOCC5)c([N+](=O)[O-])c4)c(Oc4cnc5[nH]ccc5c4)c3)CC2)=C(c2ccc(Cl)cc2)C1 [Venetoclax] + Cc1cc2ncnn2cc1Nc1ncc2c(n1)n(C1CCOCC1)c(=O)n2C [AZD7648] (first compound max 1 µM, 7x7, partner max 10 µM) | 0.233 | 0.12 | 0.212 | 0.234 | 0.247 | 0.59 | 0.396 | 0.165 | 0.332 | 0.195 | 0.539 | 0.265 | 0.558 | 0.43 | 0.392 | 0.219 | 0.523 | 0.516 | 0.259 | 0.867
